Experiment [1] relates to ornithine decarboxylase (ODC). Description: Ornithine decarboxylase assay, inhibition of TPA induction of ODC. To be noted: esters of Compounds 9 and 10. It is filed as cell-based.
The next experiment addresses T1, RARγ (Homo sapiens, UniProt P13631).
T1 construct: expressed in transfected cells; host or cells: CV-1 (African green monkey kidney)
T1 sequence (P13631 1-454): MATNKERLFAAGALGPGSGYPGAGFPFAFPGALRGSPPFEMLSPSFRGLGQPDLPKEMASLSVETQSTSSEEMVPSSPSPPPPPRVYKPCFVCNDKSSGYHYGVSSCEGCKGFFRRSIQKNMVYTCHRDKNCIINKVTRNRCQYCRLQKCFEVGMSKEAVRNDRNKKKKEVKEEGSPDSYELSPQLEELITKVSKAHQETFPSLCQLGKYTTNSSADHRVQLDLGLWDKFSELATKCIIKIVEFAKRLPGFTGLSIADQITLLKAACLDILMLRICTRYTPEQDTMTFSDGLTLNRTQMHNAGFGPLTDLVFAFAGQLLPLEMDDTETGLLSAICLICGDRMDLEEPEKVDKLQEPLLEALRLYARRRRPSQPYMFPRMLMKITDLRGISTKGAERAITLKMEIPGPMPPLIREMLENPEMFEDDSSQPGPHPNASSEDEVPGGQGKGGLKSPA
Description: Co-transfection assay, RARγ agonist activity. To be noted: for EC50: CV-1 cells, 40 hours, read-out: Potency (EC50) RARγ. The class given is cell-based.

For another experiment, the system named is RAR and RXR receptors. Briefly: Binding to the retinoid receptors taken together. To be noted: RARs and RXRs; compounds 9 and 10 versus ATRA and 9-cis.
The subject of another experiment is RARs and RXRs. Description: Co-transfection assay, RAR and RXR receptors taken together. The class given is cell-based. How it is done: Utilizing the "cis-trans" or "co-transfection" assay described by Evans et al., Science, 240:889-95 (May 13, 1988), the disclosure of which is herein incorporated by reference, the retinoid compounds of the present invention were tested and found to have strong, specific activity as either selective RAR agonists, selective RXR agonists, or as pan-agonist activators of both RAR and RXR receptors. This assay is described in further detail in U.S. Pat. Nos. 4,981,784 and 5,071,773, the disclosures of which are incorporated herein by reference.
In the co-transfection assay, a cloned cDNA for an IR (e.g., human RARα, RARβ, RXRγ) under the control of a constitutive promoter (e.g., the SV 40 promoter) is introduced by transfection (a procedure to induce cells to take up foreign genes) into a background cell substantially devoid of endogenous IRs. This introduced gene directs the recipient cells to make the IR protein of interest. A second gene is also introduced (co-transfected) into the same cells in conjunction with the IR gene. This second gene, comprising the cDNA for a reporter protein, such as firefly luciferase (LUC), is controlled by an appropriate hormone responsive promoter containing a hormone response element (HRE). This reporter plasmid functions as a reporter for the transcription-modulating activity of the target IR. Thus, the reporter acts as a surrogate for the products (mRNA then protein) normally expressed by a gene under control of the target receptor and its native hormone.
The co-transfection assay can detect small molecule agonists or antagonists of target IRs. Exposing the transfected cells to an agonist ligand compound increases reporter activity in the transfected cells. This activity can be conveniently measured, e.g., by increasing luciferase production, which reflects compound-dependent, IR-mediated increases in reporter transcription. […] . Increasing concentrations of a suspected antagonist will decrease the reporter signal (e.g., luciferase production). The co-transfection assay is therefore useful to detect both agonists and antagonists of specific IRs. Furthermore, it determines not only whether a compound interacts with a particular IR, but whether this interaction mimics (agonizes) or blocks (antagonizes) the effects of the native regulatory molecules on target gene expression, as well as the specificity and strength of this interaction.
To determine RAR and/or RXR agonist activity of the compounds of the present invention, the CV-1 cells were transiently transfected by calcium phosphate coprecipitation according to the procedure of Berger et al., 41 J. Steroid Biochem. Mol. Biol., 733 (1992) with the following receptor expressing plasmids: pRShRARα: Giguere et at., 330 Nature, 624 (1987); pRShRARβ and pRShRARγ, Ishikawa et al., 4 Mol. Endocrin., 837 (1990); pRShRXRα, Mangelsdorf et at., 345 Nature, 224 (1990); and pRSmRXRβ and pRSmRXRγ, Mangelsdorf et al., 6 Genes & Devel., 329 (1992), the disclosures of which are herein incorporated by reference. Each of these receptor expressing plasmids was co-transfected at a concentration of 5 ng/well, along with a basal reporter plasmid at 100 ng/well, the internal control plasmid pRS-β-Gal at 50 ng/well and filler DNA, pGEM at 45 ng/well.

The next experiment has as its target T2, RARα (Homo sapiens, UniProt P10276).
T2 construct: expressed in transfected cells; host or cells: CV-1 (African green monkey kidney)
T2 sequence (P10276 1-462): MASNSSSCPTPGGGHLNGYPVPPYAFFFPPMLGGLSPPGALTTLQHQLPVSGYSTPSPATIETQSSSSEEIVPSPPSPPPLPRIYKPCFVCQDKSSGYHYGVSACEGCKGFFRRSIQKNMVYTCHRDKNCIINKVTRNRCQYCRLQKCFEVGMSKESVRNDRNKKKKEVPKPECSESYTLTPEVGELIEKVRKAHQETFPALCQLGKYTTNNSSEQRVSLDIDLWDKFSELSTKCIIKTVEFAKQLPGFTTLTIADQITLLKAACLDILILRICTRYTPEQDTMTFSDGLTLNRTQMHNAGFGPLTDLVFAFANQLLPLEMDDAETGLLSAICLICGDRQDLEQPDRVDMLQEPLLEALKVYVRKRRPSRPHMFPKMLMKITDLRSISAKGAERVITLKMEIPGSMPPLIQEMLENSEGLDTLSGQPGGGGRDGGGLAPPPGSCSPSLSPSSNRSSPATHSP
Description: Co-transfection assay, RARα agonist activity. The class given is cell-based. To be noted: CV-1 cells, 40 hours, read-out: Potency (EC50) RARα.

The target in the next experiment is T3, RXRα (Homo sapiens, UniProt P19793).
T3 construct: expressed in transfected cells; host or cells: CV-1 (African green monkey kidney)
T3 sequence (P19793 1-462): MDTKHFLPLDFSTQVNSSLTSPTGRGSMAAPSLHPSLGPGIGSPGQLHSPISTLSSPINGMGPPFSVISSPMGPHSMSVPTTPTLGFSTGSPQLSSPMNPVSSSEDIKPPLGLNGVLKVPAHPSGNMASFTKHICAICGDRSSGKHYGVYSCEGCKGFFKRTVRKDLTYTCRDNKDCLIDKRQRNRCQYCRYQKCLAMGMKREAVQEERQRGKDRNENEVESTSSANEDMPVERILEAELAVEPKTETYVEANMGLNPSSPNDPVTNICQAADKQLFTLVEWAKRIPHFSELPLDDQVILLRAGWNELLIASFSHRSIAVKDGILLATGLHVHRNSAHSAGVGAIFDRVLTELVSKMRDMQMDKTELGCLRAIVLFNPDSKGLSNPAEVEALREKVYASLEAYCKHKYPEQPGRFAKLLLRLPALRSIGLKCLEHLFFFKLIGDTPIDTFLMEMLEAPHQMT
Description: Co-transfection assay, RXRα agonist activity. It is filed as cell-based. The conditions noted are these: CV-1 cells, 40 hours, read-out: Potency (EC50) RXRα.

A further experiment deals with T4, RARβ (Homo sapiens, UniProt P10826).
T4 construct: expressed in transfected cells; host or cells: CV-1 (African green monkey kidney)
T4 sequence (P10826 1-448 isoform P10826-2): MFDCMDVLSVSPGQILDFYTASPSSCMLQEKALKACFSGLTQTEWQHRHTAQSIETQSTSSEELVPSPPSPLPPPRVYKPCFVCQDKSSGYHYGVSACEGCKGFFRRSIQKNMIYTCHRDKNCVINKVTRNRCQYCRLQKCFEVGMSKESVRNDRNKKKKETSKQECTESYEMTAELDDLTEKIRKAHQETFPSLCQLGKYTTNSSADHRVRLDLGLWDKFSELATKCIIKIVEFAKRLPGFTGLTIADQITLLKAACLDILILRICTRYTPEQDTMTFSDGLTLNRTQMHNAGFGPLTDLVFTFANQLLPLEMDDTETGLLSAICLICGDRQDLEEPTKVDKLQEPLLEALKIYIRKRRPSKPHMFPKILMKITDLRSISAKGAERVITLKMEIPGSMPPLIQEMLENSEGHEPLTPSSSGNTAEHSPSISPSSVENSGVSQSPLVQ
Briefly: Co-transfection assay, RARβ agonist activity. The class given is cell-based. To be noted: CV-1 cells, 40 hours, read-out: Potency (EC50) RARβ.

In the next experiment the target is T5, RXRγ (Mus musculus, UniProt P28705).
T5 construct: expressed in transfected cells; host or cells: CV-1 (African green monkey kidney)
T5 sequence (P28705 1-463): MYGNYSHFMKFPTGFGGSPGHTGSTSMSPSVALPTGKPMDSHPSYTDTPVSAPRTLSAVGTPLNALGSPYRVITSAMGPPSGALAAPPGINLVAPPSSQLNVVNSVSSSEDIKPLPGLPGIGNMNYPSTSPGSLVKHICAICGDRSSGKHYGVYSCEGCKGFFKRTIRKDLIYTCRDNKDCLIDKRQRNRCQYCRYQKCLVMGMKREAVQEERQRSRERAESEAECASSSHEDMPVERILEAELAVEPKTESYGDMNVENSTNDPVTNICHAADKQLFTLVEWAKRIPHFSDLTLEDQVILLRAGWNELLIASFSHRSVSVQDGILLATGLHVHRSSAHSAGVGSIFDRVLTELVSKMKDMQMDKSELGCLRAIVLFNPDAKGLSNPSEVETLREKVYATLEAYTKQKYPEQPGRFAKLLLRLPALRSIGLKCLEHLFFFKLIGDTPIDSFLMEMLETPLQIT
Description: Co-transfection assay, RXRγ agonist activity. The class given is cell-based. To be noted: CV-1 cells, 40 hours, read-out: Potency (EC50) RXRγ.

Another experiment concerns the target T6, RXRβ (Mus musculus, UniProt P28704).
T6 construct: expressed in transfected cells; host or cells: CV-1 (African green monkey kidney)
T6 sequence (P28704 1-520): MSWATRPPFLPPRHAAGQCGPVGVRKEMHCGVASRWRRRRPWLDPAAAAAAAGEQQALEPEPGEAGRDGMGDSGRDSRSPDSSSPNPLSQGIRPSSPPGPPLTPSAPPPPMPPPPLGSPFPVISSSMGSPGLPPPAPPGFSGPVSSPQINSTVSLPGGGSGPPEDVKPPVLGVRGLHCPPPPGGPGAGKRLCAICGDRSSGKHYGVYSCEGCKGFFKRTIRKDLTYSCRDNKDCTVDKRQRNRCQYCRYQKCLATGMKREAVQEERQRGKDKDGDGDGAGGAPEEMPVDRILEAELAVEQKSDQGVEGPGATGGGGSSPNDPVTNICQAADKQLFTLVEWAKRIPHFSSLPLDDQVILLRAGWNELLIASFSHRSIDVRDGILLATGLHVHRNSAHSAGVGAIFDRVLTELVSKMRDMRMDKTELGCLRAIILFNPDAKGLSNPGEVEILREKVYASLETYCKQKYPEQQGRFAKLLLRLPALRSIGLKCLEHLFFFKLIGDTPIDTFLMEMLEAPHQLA
Briefly: Co-transfection assay, RXRβ agonist activity. The class given is cell-based. The conditions noted are these: CV-1 cells, 40 hours, read-out: Potency (EC50) RXRβ.

On to `CCOC(=O)/C=C(C)/C=C/C=C(\C)c1cc(C(C)(C)C)cc(C(C)(C)C)c1` [Compound 7, Ethyl (2E, 4E, 6E)-7-(3,5-di-t-butylphenyl)-3-methylocta-2,4,6-trienoate], for which the “retinoid activity of ester analogs (in words)” value in [1] is “exhibit retinoid activity”.
The same measure, in the same setting: then `CCOC(=O)/C=C(C)/C=C/C=C(/C)c1cc(C(C)(C)C)cc(C(C)(C)C)c1` [Compound 8, Ethyl (2E, 4E, 6Z)-7-(3,5-di-t-butylphenyl)-3-methylocta-2,4,6-trienoate], with “exhibit retinoid activity”.
In the case of `CC(/C=C/C=C(\C)c1cc(C(C)(C)C)cc(C(C)(C)C)c1)=C\C(=O)O` [Compound 9, (2E, 4E, 6E)-7-(3,5-Di-t-butylphenyl)-3-methylocta-2,4,6-trienoic acid], on RARγ, the “activity on RARγ (in words)” value is on record as “sub-nanomolar activity on RARγ”. Also, in the experiment with RAR and RXR receptors, the “binding on the retinoid receptors (in words)” value is “equal or superior binding”. Moreover, in the experiment with RARs and RXRs (RARs), the “RAR activity (in words)” value was “extremely potent RAR active compounds”.
Regarding `C/C(=C/C=C/C(C)=C/C(=O)O)c1cc(C(C)(C)C)cc(C(C)(C)C)c1` [Compound 10, (2E, 4E, 6Z)-7-(3,5-Di-t-butylphenyl)-3-methylocta-2,4,6-trienoic acid], the “binding on the retinoid receptors (in words)” value with RAR and RXR receptors is on record as “equal or superior binding”. The “potency profile in comparison to 9-cis retinoic acid (in words)” value in the experiment with RARs and RXRs (versus 9-cis, pan-agonist) was “superior potency profile”.
`CC(/C=C/C=C(\C)c1ccc(C(C)(C)C)cc1)=C\C(=O)O` [Compound 44, (2E, 4E, 6E)-7-(4-T-butyl-phenyl)-3-methylocta-2,4,6-trienoic acid]: the EC50 (as a rule, the concentration that produces a half-maximal response) was found to be 33 nM on RARγ; 223 nM on RARα; 1440 nM at RXRα; 37 nM at RARβ; 224 nM on RXRγ; 21 nM on RXRβ.
Regarding `CCc1cc(C)c(\C(C)=C/C=C/C(C)=C/C(=O)O)cc1CC` [Compound 54], the EC50 at RARγ was 320 nM; at RARα it was more than 10000 nM; at RXRα it was 58 nM; at RARβ, 130 nM; on RXRγ it was 78 nM; on RXRβ, 28 nM.

For the origin of these results see patent US5721103A, “Trienoic retinoid compounds and methods” (Ligand Pharmaceuticals Incorporated, priority 1995, dated 1998).
